Key:
[1] = test system: P. aeruginosa expressing IMP-1, efflux− (MB9799); test: Efflux: concentration of MBL inhibitor which restores susceptibility to imipenem; type: cell-based, Pseudomonas aeruginosa; conditions: imipenem at 2 μg/mL, in the presence of a class A, C, D serine β-lactamase inhibitor closely related to relebactam
Description: (§1) The strain background is Pseudomonas aeruginosa PAO1.

[2] = biological target: IMP-1 (Serratia marcescens, UniProt P52699); test: biochemical; type: biochemical; conditions: CCF2-FA substrate, 2 hours at 25° C; read-out: IMP-1 IC50
Procedure, shortened: (§2)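 Fluorescence assay, CCF2-FA substrate (cephalosporin core linking 7-hydroxycoumarin to fluorescein); inhibitor + MBL + substrate, 2 h, 25° C. IC50 by 4-parameter fit, semi-log plot.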

[3] = biological target: NDM-1 (Klebsiella pneumoniae, UniProt C7C422); test: biochemical; type: biochemical; conditions: CCF2-FA substrate, 2 hours at 25° C; read-out: NDM-1 IC50
Procedure, shortened: as §2

[4] = biological target: VIM-1 (Pseudomonas aeruginosa (strain ATCC 15692 / DSM 22644 / CIP 104116 / JCM 14847 / LMG 12228 / 1C / PRS 101 / PAO1), UniProt A0A0F7KYQ8); test: biochemical; conditions: CCF2-FA substrate, 2 hours at 25° C
Procedure, shortened: as §2

[5] = test system: Klebsiella pneumoniae expressing VIM-1 (IHMA599644); type: cell-based; conditions: with imipenem 1 μg/ml, 95% inhibition of bacterial growth; for Klebsiella pneumoniae MITC95: VIM-1 (IHMA599644)
Procedure, shortened: (§3)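 Colonies from overnight 35 °C blood-agar cultures were suspended in saline, diluted 1:100 into 1.1× CAMHB and exposed to test compound with or without imipenem at 1 μg/ml. After 22–24 h at 35 °C, absorbance was read to find the concentration restoring imipenem susceptibility.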

[6] = test system: Escherichia coli expressing NDM-1 (CLB30005, CLB30016); type: cell-based; conditions: with imipenem 1 μg/ml, 95% inhibition of bacterial growth; for Escherichia coli MITC95: NDM-1 (CLB30016)
Procedure, shortened: as §3

[7] = test system: Serratia marcescens expressing IMP-1 (CL5741); type: cell-based; conditions: with imipenem 1 μg/ml, 95% inhibition of bacterial growth; for Serratia marcescens MITC95: IMP-1 (CL5741)
Procedure, shortened: as §3

[8] = test system: P. aeruginosa expressing IMP-1, efflux+ (MB9798); type: cell-based, Pseudomonas aeruginosa; conditions: for P. aeruginosa expressing IMP-1, efflux+ (MB9798) MITC95: imipenem at 2 μg/mL, in the presence of a class A, C, D serine β-lactamase inhibitor closely related to relebactam; for Efflux ratio: ratio MITC95 PA_9798/MITC95 PA_9799
Description: as §1

Chain of NDM-1 (C7C422 whole entry, looked up, species assumed): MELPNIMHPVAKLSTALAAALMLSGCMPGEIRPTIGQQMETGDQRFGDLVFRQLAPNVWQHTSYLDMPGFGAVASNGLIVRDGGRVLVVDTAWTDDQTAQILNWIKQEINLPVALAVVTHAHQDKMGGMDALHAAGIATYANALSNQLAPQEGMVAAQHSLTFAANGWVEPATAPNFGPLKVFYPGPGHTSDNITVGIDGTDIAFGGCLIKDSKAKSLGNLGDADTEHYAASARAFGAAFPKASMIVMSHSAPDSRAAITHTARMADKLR
Chain of IMP-1 (P52699 whole entry, looked up, species assumed): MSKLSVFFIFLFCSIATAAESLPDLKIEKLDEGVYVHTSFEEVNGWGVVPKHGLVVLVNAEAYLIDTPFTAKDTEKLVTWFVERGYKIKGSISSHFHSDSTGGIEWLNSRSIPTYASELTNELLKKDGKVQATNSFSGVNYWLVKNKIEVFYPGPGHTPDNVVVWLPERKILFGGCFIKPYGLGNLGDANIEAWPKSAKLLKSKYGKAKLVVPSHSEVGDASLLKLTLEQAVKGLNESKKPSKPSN

Compound	P. aeruginosa expressing IMP-1, efflux− (MB9799) MITC95 [1] [µM]	IC50 [2] [nM]	IC50 [3] [nM]	IC50 [4] [nM]	Klebsiella pneumoniae expressing VIM-1 (IHMA599644) MITC95 [5] [µM]	Escherichia coli expressing NDM-1 (CLB30016) MITC95 [6] [µM]	Serratia marcescens expressing IMP-1 (CL5741) MITC95 [7] [µM]	P. aeruginosa expressing IMP-1, efflux+ (MB9798) MITC95 [8] [µM]	Efflux ratio [8]	Klebsiella pneumoniae MITC95 [5] [µM]	Escherichia coli MITC95 [6] [µM]	Serratia marcescens MITC95 [7] [µM]
Nc1nc2cc(-c3ccc(S(=O)(=O)C4CNC4)c(S(N)(=O)=O)c3-c3nn[nH]n3)ccn2n1 [Example 217, 3-(2-amino-[1,2,4]triazolo[1,5-a]pyridin-7-yl)-6-(azetidin-3-ylsulfonyl)-2-(2H-tetrazol-5-yl) benzenesulfonamide]	1.563	3.81	1.49	0.313	6.25	6.25	3.125	12.5	8.00	–	–	–
CC(=O)N1CC(S(=O)(=O)c2ccc(-c3cccc4nc(N)[nH]c34)c(-c3nn[nH]n3)c2S(N)(=O)=O)C1 [Example 54, 6-(1-acetylazetidin-3-ylsulfonyl)-3-(2-amino-3H-benzo[d]imidazol-4-yl)-2-(2H-tetrazol-5-yl)benzenesulfonamide]	3.125	2.38	0.178	0.435	12.5	6.25	6.25	50	16.00	–	–	–
C[C@@H](CN)S(=O)(=O)c1ccc(-c2cccc3sc(N)nc23)c(-c2nn[nH]n2)c1S(N)(=O)=O [Example 286, 3-(2-aminobenzo[d]thiazol-4-yl)-6-((S)-1-aminopropan-2-ylsulfonyl)-2-(2H-tetrazol-5-yl)benzenesulfonamide]	0.7813	0.323	0.0934	0.265	–	–	–	1.563	2.00	1.563	0.7813	0.7813
NS(=O)(=O)c1c(S(=O)(=O)C2CNC2)ccc(-c2cccc3sc(O)nc23)c1-c1nn[nH]n1 [Example 309, 6-(azetidin-3-ylsulfonyl)-3-(2-hydroxybenzo[d]thiazol-4-yl)-2-(2H-tetrazol-5-yl)benzenesulfonamide]	1.563	0.256	0.0885	0.145	–	–	–	3.125	2.00	3.125	0.7813	3.125
NCCS(=O)(=O)c1ccc(-c2cccc3[nH]c(CN)nc23)c(-c2nn[nH]n2)c1S(N)(=O)=O [Example 305, 6-((2-aminoethyl)sulfonyl)-3-(2-(aminomethyl)-1H-benzo[d]imidazol-4-yl)-2-(2H-tetrazol-5-yl)benzenesulfonamide]	0.7813	1.91	0.643	0.493	–	–	–	1.563	2.00	1.563	1.563	0.7813
Nc1nc2c(-c3ccc(S(=O)(=O)CC(N)CO)c(S(N)(=O)=O)c3-c3nn[nH]n3)cccc2s1 (stereo not drawn) [Example 96, 6-(2-amino-3-hydroxypropylsulfonyl)-3-(2-aminobenzo[d]thiazol-4-yl)-2-(2H-tetrazol-5-yl)benzenesulfonamide]	1.563	0.265	0.122	0.185	3.125	1.563	1.563	0.7813	0.50	–	–	–
NCCS(=O)(=O)c1ccc(-c2cccc3sc(CN)nc23)c(-c2nn[nH]n2)c1S(N)(=O)=O [Example 87, 6-(2-aminoethylsulfonyl)-3-(2-(aminomethyl)benzo[d]thiazol-4-yl)-2-(2H-tetrazol-5-yl)benzenesulfonamide]	0.3906	0.562	0.475	0.133	0.7813	0.7813	0.7813	0.7813	2.00	–	–	–
NS(=O)(=O)c1c(S(=O)(=O)C2CNC2)ccc(-c2cccc3[nH]c(C(=O)O)nc23)c1-c1nn[nH]n1 [Example 253, 4-(4-(Azetidin-3-ylsulfonyl)-3-sulfamoyl-2-(2H-tetrazol-5-yl)phenyl)-1H-benzo[d]imidazole-2-carboxylic Acid]	1.563	0.664	0.173	0.294	–	–	–	1.563	1.00	3.125	1.563	1.563
Nc1nc2c(-c3ccc(S(=O)(=O)c4cccc(C(F)(F)F)c4)c(S(N)(=O)=O)c3-c3nn[nH]n3)cccc2s1 [Example 250, 3-(2-Aminobenzo[d]thiazol-4-yl)-2-(2H-tetrazol-5-yl)-6-((3-(trifluoromethyl)phenyl)sulfonyl)benzenesulfonamide]	3.125	0.82	0.245	0.681	–	–	–	200	64.00	100	6.25	6.25
Nc1nc2cccc(-c3ccc(S(=O)(=O)C4CNC4)c(S(N)(=O)=O)c3-c3nn[nH]n3)n2n1 [Example 214, 3-(2-amino-[1,2,4]triazolo[1,5-a]pyridin-5-yl)-6-(azetidin-3-ylsulfonyl)-2-(2H-tetrazol-5-yl)benzenesulfonamide]	1.563	3.32	0.139	0.221	6.25	3.125	3.125	3.125	2.00	–	–	–
NCCS(=O)(=O)c1ccc(-c2c[nH]c3nccnc23)c(-c2nnn[nH]2)c1S(N)(=O)=O.O=C(O)C(F)(F)F [Example 136, 2-((4-(5H-pyrrolo[2,3-b]pyrazin-7-yl)-2-sulfamoyl-3-(1H-tetrazol-5-yl)phenyl)sulfonyl)ethanaminium 2,2,2-trifluoroacetate]	0.7813	1.72	2.14	1.19	3.125	1.563	1.563	12.5	16.00	–	–	–
